Laboratory results as given in patent US9901592B2 (priority 2008, dated 2018).
Converted amounts (≈) assume the structure as drawn. “And” between values parts separate entries of the source, which are not always exact repeats. Identical values can stand only once. Like-named read-outs stand apart in the source and are kept apart here.

Tests used:
[1] = test system: U. parvum; assay: MIC testing in 10B broth (colour change); format: cell-based, Ureaplasma parvum
[2] = test system: S. pneumoniae; assay: neutropenic mouse thigh infection; format: in vivo; conditions: QD, PO
[3] = test system: M. fermentans; format: cell-based; conditions: M. fermentans (15 isolates)
[4] = test system: S. pyogenes 3029; assay: Intraperitoneal (IP) mouse infection model (ED50); format: in vivo; conditions: Streptococcus pyogenes, MAC-R S. pyogenes 3029
[5] = test system: S. pyogenes; assay: microbe, parasite or virus in culture; format: cell-based; conditions: for MIC: Streptococcus pyogenes
[6] = test system: H. influenzae ATCC 49247; assay: post-antibiotic effect (PAE) testing; conditions: H. influenzae ATCC 49247; 4X MIC; exposure 1 hour
[7] = test system: M. genitalium; format: cell-based; conditions: M. genitalium (5 isolates)
[8] = test system: S. pyogenes; format: cell-based; parameters: MIC: unit not given beside the values; conditions: for MIC50 / MIC90: Streptococcus pyogenes
[9] = test system: N. meningitidis; assay: MIC, CLSI broth microdilution, invasive isolates; format: cell-based; conditions: Neisseria meningitidis; 62 N. meningitidis isolates
Description: Example. […] Colonization of the nasopharynx (NP) by NM can lead to invasive meningococcal disease. Chemoprophylaxis is used to eradicate NP colonization and prevent transmission to nonimmune contacts. […] 62 isolates (91.9% blood culture) of NM were collected from 29 medical centers in North and South America and Europe (1997-2008). […] Serological identification was performed for serogroups (SGs) B, C, Y and W135.

[10] = test system: S. pneumoniae; assay: MIC of the strains of the mouse systemic infection model; format: cell-based; conditions: Streptococcus pneumoniae
[11] = test system: S. pyogenes ATCC 8668; assay: mouse subcutaneous abscess model; format: in vivo; conditions: 48 hr. post infection
Description: Example. Mouse Subcutaneous Abscess. Bacteria were prepared from an overnight plate culture by re-suspending in saline and adjusting the suspension to a 0.1 OD at 625 nm of a 1:10 dilution. The adjusted bacterial suspension was mixed 1:2 with cyclodextran beads prepared as per package instructions. The right flanks of the mice were shaven and injected subcutaneously with 0.2 ml of the bacterial inoculum. Two hours post infection mice were treated via oral gavage with either test article or control drug. 48 hours post infection, mice were euthanized, abscesses aseptically removed, homogenized, serially diluted and plated on bacterial growth agar. After overnight incubation, colonies were counted and CFUs/gram of abscess were determined.
Example. Mouse Subcutaneous Abscess˜S. pyogenes ATCC 8668 (Average Log10 CFU/gram of Abscess). Abscess processing 48 hours post infection.

[12] = test system: S. pyogenes; assay: MIC of the strains of the mouse systemic infection model; format: cell-based; conditions: Streptococcus pyogenes
[13] = test system: viridans group streptococci (VGS); format: cell-based; conditions: VGS (51)
[14] = test system: S. pneumoniae; assay: mouse systemic infection model (PD50); format: in vivo
[15] = test system: S. pyogenes; assay: mouse systemic infection model (PD50); format: in vivo
[16] = test system: intraphagocytic L. pneumophila ATCC 33153 (THP-1); format: cell-based; conditions: intracellular L. pneumophila ATCC 33153
[17] = test system: S. pneumoniae; assay: microbe, parasite or virus in culture; format: cell-based
[18] = S. pyogenes TEL R, Macr-R, 10 strains
[19] = S. pyogenes TEL S, Macr-R, 30 strains
[20] = S. pyogenes TEL S, Macr-S, 10 strains
[21] = S. pneumoniae (macrolide susceptible)
[22] = S. pyogenes (macrolide susceptible)

CC[C@H]1OC(=O)[C@H](C)C(=O)[C@H](C)[C@@H](O[C@@H]2O[C@H](C)C[C@H](N(C)C)[C@H]2O)[C@](C)(OC)C[C@@H](C)C(=O)[C@H](C)[C@H]2N(CCCCn3cnc(-c4cccnc4)c3)C(=O)O[C@]12C [TEL, telithromycin]
MIC Range ([1]; U. parvum (10 isolates)): 0.008 to 0.063 µg/mL | MIC50 ([1]; Ureaplasma parvum): 0.063 µg/mL (≈ 0.0776 µM) | MIC90 ([1]; Ureaplasma parvum): 0.125 µg/mL (≈ 0.154 µM) | Dose for 1 log10 Reduction from 24 hour controls ([2]; S. pneumoniae 1629): 11.0 mg/Kg | Dose for 3 log10 Reduction from 24 hour controls ([2]; S. pneumoniae 1629): 15.5 mg/Kg | Dose for 1 log10 Reduction from 24 hour controls ([2]; S. pneumoniae 6303): 4.75 mg/Kg | Dose for 2 log10 Reduction from 24 hour controls ([2]; S. pneumoniae 6303): 6.5 mg/Kg | Dose for 3 log10 Reduction from 24 hour controls ([2]; S. pneumoniae 6303): 8.75 mg/Kg | MIC Range [3]: 0.002 to 0.031 µg/mL | MIC50 ([3]; Mycoplasmopsis fermentans): ≤ 0.008 µg/mL | MIC90 ([3]; Mycoplasmopsis fermentans): 0.016 µg/mL (≈ 0.0197 µM) | ED50 [4]: > 150 mg/kg | strains with resistant clones / strains tested ([5]; S. pyogenes): 2/4 and 2/5 | MIC ([5]; read-out: Initial MIC, strain 237 Macrolide-R [LA mutation], parent): 0.06 µg/mL (≈ 0.0739 µM) | MIC ([5]; read-out: Initial MIC, strain 2011 Macrolide-R [mef(A)], parent): 0.5 µg/mL (≈ 0.616 µM) | MIC ([5]; read-out: Initial MIC, strain 2094 Macrolide-R [erm(A)], parent): 0.03 µg/mL (≈ 0.0369 µM) | MIC ([5]; read-out: Initial MIC, strain 2132 Macrolide-S, parent): 0.008 µg/mL (≈ 0.00985 µM) | MIC ([5]; read-out: MIC of parents of resistant clones, S. pyogenes): 0.03 to 8 µg/mL | MIC ([5]; read-out: Parental MICs, S. pyogenes, 5 strains with varying resistotypes): 0.03 to 8 µg/mL (≈ 0.0369 to 9.85 µM) | MIC ([5]; read-out: Selected Resistance (MIC), strain 237 Macrolide-R [LA mutation], after serial passages in the drug): 0.125 µg/mL (≈ 0.154 µM) | MIC ([5]; read-out: Selected Resistance (MIC), strain 2011 Macrolide-R [mef(A)], after serial passages in the drug): 1 µg/mL (≈ 1.23 µM) | MIC ([5]; read-out: Selected Resistance (MIC), strain 2094 Macrolide-R [erm(A)], after serial passages in the drug): 0.25 µg/mL (≈ 0.308 µM) | MIC ([5]; read-out: Selected Resistance (MIC), strain 2132 Macrolide-S, after serial passages in the drug): 0.03 µg/mL (≈ 0.0369 µM) | MIC ([5]; read-out: Selected Resistance (MIC), strain 2368 Macrolide-R [erm(B)], after serial passages in the drug): > 64 µg/mL | days until resistant clones (MIC increase) ([5]; daily passages, max. 50): 6 to 22 days | Retest MIC after 10 Antibioticfree Subcultures ([5]; strain 237 Macrolide-R [LA mutation], clone selected with CEM-101): 1 µg/mL | Retest MIC after 10 Antibioticfree Subcultures ([5]; strain 237 Macrolide-R [LA mutation], clone selected with CLN): 0.06 µg/mL | Retest MIC after 10 Antibioticfree Subcultures ([5]; strain 2011 Macrolide-R [mef(A)], clone selected with AZI): 0.25 µg/mL | Retest MIC after 10 Antibioticfree Subcultures ([5]; strain 2094 Macrolide-R [erm(A)], clone selected with AZI): 0.03 µg/mL | Retest MIC after 10 Antibioticfree Subcultures ([5]; strain 2094 Macrolide-R [erm(A)], clone selected with CEM-101): 0.5 µg/mL | Retest MIC after 10 Antibioticfree Subcultures ([5]; strain 2094 Macrolide-R [erm(A)], clone selected with CLN): 0.03 µg/mL | Retest MIC after 10 Antibioticfree Subcultures ([5]; strain 2094 Macrolide-R [erm(A)], clone selected with CLR): 0.03 µg/mL | Retest MIC after 10 Antibioticfree Subcultures ([5]; strain 2094 Macrolide-R [erm(A)], clone selected with TEL): 0.125 µg/mL | Retest MIC after 10 Antibioticfree Subcultures ([5]; strain 2132 Macrolide-S, clone selected with AZI): 0.03 µg/mL | Retest MIC after 10 Antibioticfree Subcultures ([5]; strain 2368 Macrolide-R [erm(B)], clone selected with CEM-101): >64 µg/mL | Retest MIC after 10 Antibioticfree Subcultures ([5]; strain 2368 Macrolide-R [erm(B)], clone selected with TEL): >64 µg/mL | PAE [6]: 1.2 h | MIC Range [7]: ≦0.00003-0.00025 μg/mL | MIC ([8]; MAC-R S. pyogenes 3029): (16) | MIC50 [8, 18]: 32 µg/mL (≈ 39.4 µM) | MIC90 [8, 18]: 32 µg/mL (≈ 39.4 µM) | MIC50 [8, 19]: 0.125 µg/mL (≈ 0.154 µM) | MIC90 [8, 19]: 0.5 µg/mL (≈ 0.616 µM) | MIC50 [8, 20]: 0.03 µg/mL (≈ 0.0369 µM) | MIC90 [8, 20]: 0.03 µg/mL (≈ 0.0369 µM) | MIC [9]: 0.015 to 0.12 µg/mL (≈ 0.0185 to 0.148 µM) | MIC50 [9]: ≤ 0.015 µg/mL | MIC90 [9]: 0.03 µg/mL (≈ 0.0369 µM) | MIC [10, 21]: < 0.06 µg/mL | MIC ([10]; S. pneumoniae (mefR), read-out: MIC): 0.25 µg/mL | MIC ([10]; S. pneumoniae serotype 19A, read-out: MIC): 0.5 µg/mL | Average Log10 CFU/gram of Abscess ([11]; 10 mg/Kg): 7.06 Log10 CFU/gram | Average Log10 CFU/gram of Abscess ([11]; 20 mg/Kg): 6.10 Log10 CFU/gram | MIC ([12]; S. pyogenes (erythromycin R)): 1 µg/mL | MIC [12, 22]: 0.015 µg/mL | MIC50 [13]: 0.015 µg/mL (≈ 0.0185 µM) | MIC90 [13]: 0.25 µg/mL (≈ 0.308 µM) | MIC Range [13]: ≦0.008-0.5 μg/ml | PD50 [14, 21]: 19.9 mg/kg | PD50 ([14]; S. pneumoniae (mefR)): 10.6 mg/kg | PD50 ([14]; S. pneumoniae serotype 19A): 5.7 mg/kg | PD50 ([15]; S. pyogenes (erythromycin R)): 4.4 mg/kg | PD50 [15, 22]: 7.8 mg/kg | Cs, static concentration [16]: 0.06 mg/L | MIC 90% [17]: 0.5 µg/mL (≈ 0.616 µM) | susceptible [17]: 100.0% | MIC90 ([17]; Streptococcus pneumoniae): 1 µg/mL (≈ 1.23 µM)
